Measured values: patent publication US20260226029A1, “1-(1-Oxo-1,2-Dihydrophthalazin-6-yl)Cycloalkyl-1-Carboxamide Derivatives as MTA-Cooperative Inhibitors of PRMT5” (BeOne Medicines I GmbH, priority 2023, published 2026)

Columns and labels:
HCT116-MTAP-KO = assay: Compounds cell killing in HCT116 isogenic pair (CellTiter-Glo, 6 days), MTAP-KO cells; type: cell-based; details: Homo sapiens, HCT-116, 144 h, Cell Titer-Glo, 0-10 μM
Description: (§1) HCT116 cell line (ATCC, CCL-247) was isolated from the colon of an adult with colon cancer. It has a mutation in codon 13 of the ras proto-oncogene and can be used as a positive control for PCR assays of mutation in this codon. HCT116-MTAP-KO was knocked-out-MTAP-gene based HCT116, and a single clone was passed for this assay. HCT116-mock-RNA-KO was knocked-out-mock-gene based HCT116 with MTAP wildtype genotype. The base medium for HCT116 isogenic pair is RPMI 1640, HEPES (Gibco, 22400105). To make the complete growth medium, add the following components to the base medium: fetal bovine serum to a final concentration of 10% (Gibco, 10099-141C). The cell line was grown in a humidified 5% CO2 atmosphere at 37° C. and regularly tested for the presence of mycoplasma with MycoAlert™ PLUS Mycoplasma Detection Kit (Lonza, LT07-710).
(§2) • Seed HCT116-mock-RNA-KO (4E2/well) or HCT116-MTAP-KO (4E2/well) cells into a 96-well plate (Greiner: 655090), 100 µL/well. • Incubate at 37° C., 5% CO2, overnight. • Add 50 μL fresh growth-medium containing serial dilution of compounds for a final compound concentration of 0-10 μM to each well. • Incubate at 37° C., 5% CO2, 6 days. • The cell viability detected by Cell Titer-Glo (Promega, G7573). Add 70 μL of CellTiter-Glo® reagent in each well. • Incubate at room temperature for 10 minutes to stabilize luminescent signal. • Analyze with Microplate Reader (TECAN, SPARK) and fit IC50 using Prism® 9.

HCT116-mock-RNA-KO = assay: Compounds cell killing in HCT116 isogenic pair (CellTiter-Glo, 6 days), mock-KO (MTAP wildtype) cells; type: cell-based; details: Homo sapiens, HCT-116, 144 h, Cell Titer-Glo, 0-10 μM
Description: as §1, §2

| SMILES | IC50 (HCT116-MTAP-KO) [nM] | IC50 (HCT116-mock-RNA-KO) [nM] |
| --- | --- | --- |
| C[C@H]1CCC[C@@H](c2ccc(C(F)(F)F)cn2)N1C(=O)C1(c2ccc3c(=O)[nH]nc(CN)c3c2)CC1 (racemic) [Example 24, (±)-4-(aminomethyl)-6-(1-((2S,6S)-2-methyl-6-(5-(trifluoromethyl)pyridin-2-yl)piperidine-1-carbonyl)cyclopropyl)phthalazin-1(2H)-one] | 5260 | > 10000 |
| NCc1n[nH]c(=O)c2ccc(C3(C(=O)N(Cc4ccc(C(F)(F)F)cn4)C4CCCc5cccnc54)CC3)cc12 (stereo not drawn) [Example 1, 1-(4-(aminomethyl)-1-oxo-1,2-dihydrophthalazin-6-yl)-N-(5,6,7,8-tetrahydroquinolin-8-yl)-N-((5-(trifluoromethyl)pyridin-2-yl)methyl)cyclopropane-1-carboxamide] | 98 | > 10000 |
| NCc1n[nH]c(=O)c2ccc(C3(C(=O)N(Cc4ccc(C(F)(F)F)cn4)[C@@H]4CCCc5cccnc54)CC3)cc12 [Example 2A, (R)-1-(4-(aminomethyl)-1-oxo-1,2-dihydrophthalazin-6-yl)-N-(5,6,7,8-tetrahydroquinolin-8-yl)-N-((5-(trifluoromethyl)pyridin-2-yl)methyl)cyclopropane-1-carboxamide] | 98 | 3680 |
| NCc1n[nH]c(=O)c2ccc(C3(C(=O)N(Cc4ccc(C(F)(F)F)cn4)[C@H]4CCCc5cccnc54)CC3)cc12 [Example 2B, (S)-1-(4-(aminomethyl)-1-oxo-1,2-dihydrophthalazin-6-yl)-N-(5,6,7,8-tetrahydroquinolin-8-yl)-N-((5-(trifluoromethyl)pyridin-2-yl)methyl)cyclopropane-1-carboxamide] | > 10000 | > 10000 |
| NCc1n[nH]c(=O)c2ccc(C3(C(=O)N(Cc4ccc(-c5c(Cl)cccc5Cl)cn4)C4CCCc5cccnc54)CC3)cc12 (stereo not drawn) [Example 3, 1-(4-(aminomethyl)-1-oxo-1,2-dihydrophthalazin-6-yl)-N-((5-(2,6-dichlorophenyl)pyridin-2-yl)methyl)-N-(5,6,7,8-tetrahydroquinolin-8-yl)cyclopropane-1-carboxamide] | 57 | 3870 |
| NCc1n[nH]c(=O)c2ccc(C3(C(=O)N(Cc4ccc(-c5c(Cl)cccc5Cl)cn4)[C@@H]4CCCc5cccnc54)CC3)cc12 [Example 4A, (R)-1-(4-(aminomethyl)-1-oxo-1,2-dihydrophthalazin-6-yl)-N-((5-(2,6-dichlorophenyl)pyridin-2-yl)methyl)-N-(5,6,7,8-tetrahydroquinolin-8-yl)cyclopropane-1-carboxamide] | 85 | 2950 |
| NCc1n[nH]c(=O)c2ccc(C3(C(=O)N(Cc4ccc(-c5c(Cl)cccc5Cl)cn4)[C@H]4CCCc5cccnc54)CC3)cc12 [Example 4B, (S)-1-(4-(aminomethyl)-1-oxo-1,2-dihydrophthalazin-6-yl)-N-((5-(2,6-dichlorophenyl)pyridin-2-yl)methyl)-N-(5,6,7,8-tetrahydroquinolin-8-yl)cyclopropane-1-carboxamide] | 1540 | 5910 |
| CC1(C)COc2nc(CN(C(=O)C3(c4ccc5c(=O)[nH]nc(CN)c5c4)CC3)C3CCCc4cccnc43)ccc21 (stereo not drawn) [Example 5, 1-(4-(aminomethyl)-1-oxo-1,2-dihydrophthalazin-6-yl)-N-((3,3-dimethyl-2,3-dihydrofuro[2,3-b]pyridin-6-yl)methyl)-N-(5,6,7,8-tetrahydroquinolin-8-yl)cyclopropane-1-carboxamide] | 707 | > 10000 |
| CC(C)(O)c1ccc(CN(C(=O)C2(c3ccc4c(=O)[nH]nc(CN)c4c3)CC2)C2CCCc3cccnc32)nc1 (stereo not drawn) [Example 6, 1-(4-(aminomethyl)-1-oxo-1,2-dihydrophthalazin-6-yl)-N-((5-(2-hydroxypropan-2-yl)pyridin-2-yl)methyl)-N-(5,6,7,8-tetrahydroquinolin-8-yl)cyclopropane-1-carboxamide] | 2560 | > 10000 |
| Cc1cc(CN(C(=O)C2(c3ccc4c(=O)[nH]nc(CN)c4c3)CC2)C2CCCc3cccnc32)ncc1C(F)(F)F (stereo not drawn) [Example 7, 1-(4-(aminomethyl)-1-oxo-1,2-dihydrophthalazin-6-yl)-N-((4-methyl-5-(trifluoromethyl)pyridin-2-yl)methyl)-N-(5,6,7,8-tetrahydroquinolin-8-yl)cyclopropane-1-carboxamide] | 285 | > 10000 |
| Cc1nc(CN(C(=O)C2(c3ccc4c(=O)[nH]nc(CN)c4c3)CC2)C2CCCc3cccnc32)ccc1-c1ccccc1 (stereo not drawn) [Example 8, 1-(4-(aminomethyl)-1-oxo-1,2-dihydrophthalazin-6-yl)-N-((6-methyl-5-phenylpyridin-2-yl)methyl)-N-(5,6,7,8-tetrahydroquinolin-8-yl)cyclopropane-1-carboxamide] | 255 | 5250 |
| NCc1n[nH]c(=O)c2ccc(C3(C(=O)N(Cc4ccc(C(F)(F)F)cn4)Cc4c(F)cccc4Cl)CC3)cc12 [Example 9, 1-(4-(aminomethyl)-1-oxo-1,2-dihydrophthalazin-6-yl)-N-(2-chloro-6-fluorobenzyl)-N-((5-(trifluoromethyl)pyridin-2-yl)methyl)cyclopropane-1-carboxamide] | 222 | 4670 |
| NCc1n[nH]c(=O)c2ccc(C3(C(=O)N(Cc4ccc(-c5ccccc5)cn4)C4CCCc5cccnc54)CC3)cc12 (stereo not drawn) [Example 10, 1-(4-(aminomethyl)-1-oxo-1,2-dihydrophthalazin-6-yl)-N-((5-phenylpyridin-2-yl)methyl)-N-(5,6,7,8-tetrahydroquinolin-8-yl)cyclopropane-1-carboxamide] | 18 | 7230 |
| NCc1n[nH]c(=O)c2ccc(C3(C(=O)N(Cc4ccc(-c5ccccc5)cn4)[C@@H]4CCCc5cccnc54)CC3)cc12 [Example 11A, (R)-1-(4-(aminomethyl)-1-oxo-1,2-dihydrophthalazin-6-yl)-N-((5-phenylpyridin-2-yl)methyl)-N-(5,6,7,8-tetrahydroquinolin-8-yl)cyclopropane-1-carboxamide] | 57 | 2790 |
| NCc1n[nH]c(=O)c2ccc(C3(C(=O)N(Cc4ccc(-c5ccccc5)cn4)[C@H]4CCCc5cccnc54)CC3)cc12 [Example 11B, (S)-1-(4-(aminomethyl)-1-oxo-1,2-dihydrophthalazin-6-yl)-N-((5-phenylpyridin-2-yl)methyl)-N-(5,6,7,8-tetrahydroquinolin-8-yl)cyclopropane-1-carboxamide] | 2090 | > 10000 |
| Cc1nc(CN(C(=O)C2(c3ccc4c(=O)[nH]nc(CN)c4c3)CC2)C2CCCc3cccnc32)sc1I (stereo not drawn) [Example 12, 1-(4-(aminomethyl)-1-oxo-1,2-dihydrophthalazin-6-yl)-N-((5-iodo-4-methylthiazol-2-yl)methyl)-N-(5,6,7,8-tetrahydroquinolin-8-yl)cyclopropane-1-carboxamide] | 482 | 6010 |
| N#Cc1cccc(Cl)c1-c1ccc(CN(C(=O)C2(c3ccc4c(=O)[nH]nc(CN)c4c3)CC2)C2CCCc3cccnc32)nc1 (stereo not drawn) [Example 13, 1-(4-(aminomethyl)-1-oxo-1,2-dihydrophthalazin-6-yl)-N-((5-(2-chloro-6-cyanophenyl)pyridin-2-yl)methyl)-N-(5,6,7,8-tetrahydroquinolin-8-yl)cyclopropane-1-carboxamide] | 62 | 3950 |
| CC(C)(C)c1ccc(CN(C(=O)C2(c3ccc4c(=O)[nH]nc(CN)c4c3)CC2)C2CCCc3cccnc32)nc1 (stereo not drawn) [Example 14, 1-(4-(aminomethyl)-1-oxo-1,2-dihydrophthalazin-6-yl)-N-((5-(tert-butyl)pyridin-2-yl)methyl)-N-(5,6,7,8-tetrahydroquinolin-8-yl)cyclopropane-1-carboxamide] | 378 | > 10000 |
| NCc1n[nH]c(=O)c2ccc(C3(C(=O)N(Cc4ncc(Br)c5ccccc45)C4CCCc5cccnc54)CC3)cc12 (stereo not drawn) [Example 15, 1-(4-(aminomethyl)-1-oxo-1,2-dihydrophthalazin-6-yl)-N-((4-bromoisoquinolin-1-yl)methyl)-N-(5,6,7,8-tetrahydroquinolin-8-yl)cyclopropane-1-carboxamide] | 942 | 5080 |
| Cn1nccc1-c1ccc(CN(C(=O)C2(c3ccc4c(=O)[nH]nc(CN)c4c3)CC2)C2CCCc3cccnc32)nc1 (stereo not drawn) [Example 16, 1-(4-(aminomethyl)-1-oxo-1,2-dihydrophthalazin-6-yl)-N-((5-(1-methyl-1H-pyrazol-5-yl)pyridin-2-yl)methyl)-N-(5,6,7,8-tetrahydroquinolin-8-yl)cyclopropane-1-carboxamide] | 699 | > 10000 |
| COc1ccnc2c1CCCC2N(Cc1ccc(C(F)(F)F)cn1)C(=O)C1(c2ccc3c(=O)[nH]nc(CN)c3c2)CC1 (stereo not drawn) [Example 17, 1-(4-(aminomethyl)-1-oxo-1,2-dihydrophthalazin-6-yl)-N-(4-methoxy-5,6,7,8-tetrahydroquinolin-8-yl)-N-((5-(trifluoromethyl)pyridin-2-yl)methyl)cyclopropane-1-carboxamide] | 253 | > 10000 |
